Active and inactive are the calls of the source. No rule for the calls is given here.
Biological target: Alkaline phosphatase, placental type (Homo sapiens) (UniProt P05187)
Assay: PLAP enzyme inhibition by analogs, SAR follow-up, selectivity assay for human IAP inhibitor project, biochemical, human PLAP isozyme (AID 493138)
Conditions: purified placental alkaline phosphatase, enzyme activity

| IC50 | SMILES |
| --- | --- |
| > 100 µM (inactive) | COc1cc(/C=N/N=C2/SCC(=O)N2c2ccc(O)cc2)ccc1O |
| > 100 µM (inactive) | Cc1cccc(Nc2nc(-c3ccc(O)c(C(N)=O)c3)cs2)c1 |
| > 100 µM (inactive) | Cc1ccc(Nc2nc(-c3ccc(O)c(O)c3)cs2)cc1 |
| > 100 µM (inactive) | Cc1cc(=O)oc2cc(NC(=S)NCCC(c3ccccc3)c3ccccc3)ccc12 |
| > 100 µM (inactive) | COc1ccc(C=NN=C2SC(CC(=O)O)C(=O)N2c2ccc(O)cc2)cc1 (stereo unspecified) |
| > 100 µM (inactive) | O=[N+]([O-])c1ccccc1NC(=S)N/N=C/c1ccc(O)c(O)c1O |
| > 100 µM (inactive) | Cc1ccc2nc(NNC(=O)c3ccc4c(c3)OCCO4)sc2c1 |
| > 100 µM (inactive) | CN(C)S(=O)(=O)c1cccc(NC(=S)NN=Cc2ccc(O)c(O)c2O)c1 |
| > 100 µM (inactive) | Oc1ccc(-c2csc(Nc3ccccc3)n2)c(O)c1 |
| > 100 µM (inactive) | Oc1ccc(Nc2nc(-c3ccc(O)c(O)c3)cs2)cc1 |
| > 100 µM (inactive) | COc1ccc(C=NNC(=S)Nc2ccccc2[N+](=O)[O-])cc1O |
| > 100 µM (inactive) | Cc1cccc(NC(=S)NNC(=O)c2ccc3c(c2)OCO3)c1 |
| > 100 µM (inactive) | O=S(=O)(c1ccc(NC(=S)N/N=C/c2ccc(O)c(O)c2O)cc1)N1CCOCC1 |
| > 100 µM (inactive) | CCOc1ccc(Nc2nc(-c3ccc(O)c(O)c3)cs2)cc1 |
| > 100 µM (inactive) | COc1cc(C(=O)NNC(=S)Nc2ccc(S(N)(=O)=O)cc2)cc(OC)c1OC |
| > 100 µM (inactive) | O=S(=O)(Nc1ncccn1)c1ccc(NC(=S)NCCC(c2ccccc2)c2ccccc2)cc1 |
| > 100 µM (inactive) | Cc1ccc(Nc2nc(-c3ccc(O)cc3O)cs2)cc1F |
| > 100 µM (inactive) | COc1cc([N+](=O)[O-])ccc1NC(=S)NNC(=O)c1ccc2c(c1)OCO2 |
| 33.8 µM | NS(=O)(=O)c1ccc(Nc2nc(-c3ccc(O)c(O)c3)cs2)cc1 |
| > 100 µM (inactive) | O=[N+]([O-])c1ccc(NC(=S)NCCC(c2ccccc2)c2ccccc2)cc1 |

| IC50 | SMILES |
| --- | --- |
| > 100 µM (inactive) | Cc1cccc(Nc2nc(-c3ccc(O)c(O)c3)cs2)c1 |
| > 100 µM (inactive) | COc1cc(C=NNC(=S)Nc2cccc(S(=O)(=O)N(C)C)c2)cc(OC)c1O |
| > 100 µM (inactive) | Cc1ccc(Nc2nc(-c3ccc(O)cc3O)cs2)cc1 |
| > 100 µM (inactive) | COc1cc(C=NN=C2SC(CC(=O)O)C(=O)N2c2ccc(O)cc2)ccc1O (stereo unspecified) |
| 8.24 µM | O=[N+]([O-])c1ccccc1NC(=S)NN=Cc1ccc(O)c(O)c1 |
| > 100 µM (inactive) | COc1cc(C=NNC(=S)Nc2cccc(C(=O)O)c2)ccc1O |
| > 100 µM (inactive) | CCOc1cc(C=NNC(=S)NC2CCCCC2)ccc1O |
| > 100 µM (inactive) | COc1cc(C=NNC(=S)Nc2cccc(S(=O)(=O)N(C)C)c2)ccc1O |
| > 100 µM (inactive) | Cc1ccc(Nc2nc(-c3ccc(O)c(O)c3)cs2)cc1F |
| > 100 µM (inactive) | Oc1ccc(-c2csc(Nc3ccc(F)cc3)n2)cc1O |
| > 100 µM (inactive) | Cn1c(=S)n(N=Cc2ccc3c(c2)OCO3)c2ccccc21 |
| > 100 µM (inactive) | NS(=O)(=O)c1ccc(Nc2nc(-c3ccc(O)cc3O)cs2)cc1 |
| > 100 µM (inactive) | Cc1cccc(C)c1NC(=S)N/N=C/c1ccc(O)c(O)c1O |
| > 100 µM (inactive) | Cc1cccc(NC(=S)NN=Cc2ccc3c(c2)OCO3)c1 |
| > 100 µM (inactive) | O=S(=O)(c1ccc(NC(=S)N/N=C/c2ccc(O)c(O)c2)cc1)N1CCOCC1 |
| > 100 µM (inactive) | Cc1cccc2sc(NNC(=O)c3ccc4c(c3)OCCO4)nc12 |
| > 100 µM (inactive) | Cc1ccc(Nc2nc(-c3ccc(O)cc3O)cs2)cc1C |
| > 100 µM (inactive) | Cc1ccc(C)c(Nc2nc(-c3ccc(O)cc3O)cs2)c1 |
| > 100 µM (inactive) | CC(=NNC(=S)Nc1ccccc1)c1ccc2c(c1)OCO2 |
| > 100 µM (inactive) | Cc1ccc(Nc2nc(-c3ccc(O)c(C(N)=O)c3)cs2)cc1 |

Further lines, the molecule ahead of its results:

| SMILES | IC50 |
| --- | --- |
| Oc1ccc(-c2csc(Nc3cccc4ccccc34)n2)cc1O | > 100 µM (inactive) |
| CC(C)(C)c1ccc(/C=N/N=C2\NC(=O)C(CC(=O)O)S2)cc1 (stereo unspecified) | > 100 µM (inactive) |
| COC(=O)/C=C1/S/C(=N/N=Cc2ccc(N(C)C)cc2)NC1=O | > 100 µM (inactive) |
| COc1ccc(Cl)cc1Nc1nc(-c2ccc(O)c(O)c2)cs1 | > 100 µM (inactive) |
| COc1ccc(/C=N/N=C2/NC(=O)C(CC(=O)O)S2)cc1OC (stereo unspecified) | > 100 µM (inactive) |
| S=C(NCCC(c1ccccc1)c1ccccc1)Nc1ccc(Cl)cc1Cl | > 100 µM (inactive) |
| Cc1ccc2sc(NNC(=O)c3ccc4c(c3)OCCO4)nc2c1C | > 100 µM (inactive) |
| COc1cc([N+](=O)[O-])ccc1NC(=S)NCCC(c1ccccc1)c1ccccc1 | > 100 µM (inactive) |
| Cc1ccc(-c2ccc(/C=N/N=C3\NC(=O)C(CC(=O)O)S3)o2)c([N+](=O)[O-])c1 (stereo unspecified) | > 100 µM (inactive) |
| Cc1c(Cl)cccc1Nc1nc(-c2ccc(O)c(O)c2)cs1 | > 100 µM (inactive) |
| COC(=O)/C=C1\SC(N=Nc2c(O)[nH]c3ccccc23)=NC1=O | > 100 µM (inactive) |
| CCN(CC)S(=O)(=O)c1ccc(-c2csc(=Nc3cccc4ccccc34)n2C)cc1 | > 100 µM (inactive) |
| COC(=O)/C=C1/S/C(=N/NC(=O)c2ccccc2)NC1=O | > 100 µM (inactive) |
| CCOc1cc(/C=N/N=C2\NC(=O)C(CC(=O)O)S2)ccc1O (stereo unspecified) | > 100 µM (inactive) |
| FC(F)(F)c1cccc(NC(=S)NCCC(c2ccccc2)c2ccccc2)c1 | > 100 µM (inactive) |
| COc1cccc(Nc2nc(-c3ccc(O)cc3)cs2)c1 | > 100 µM (inactive) |
| COc1ccc(C=Nn2c(=S)n(C)c3ccccc32)cc1OC | > 100 µM (inactive) |
| N#CCCn1cc(/C=N/N=C2/NC(=O)C(CC(=O)O)S2)c(-c2ccc(F)cc2)n1 (stereo unspecified) | > 100 µM (inactive) |

| SMILES | IC50 |
| --- | --- |
| COc1ccc(/C=N/N=C2\NC(=O)C(CC(=O)O)S2)c(OC)c1 (stereo unspecified) | > 100 µM (inactive) |
| COC(=O)/C=C1/S/C(=N/NC(=O)c2ccccc2OC)NC1=O | > 100 µM (inactive) |
| COc1ccc(-c2csc(Nc3cccc4ccccc34)n2)cc1 | > 100 µM (inactive) |
| COc1ccc(-c2csc(Nc3cccc4ccccc34)n2)cc1F | > 100 µM (inactive) |
| COC(=O)C/C=N/N=C1\NC(=O)/C(=C/C(=O)O)S1 | > 100 µM (inactive) |
| COC(=O)/C=C1\S/C(=N/N=C/CC(=O)OC)NC1=O | > 100 µM (inactive) |
| O=C(O)CC1S/C(=N/N=C/c2ccco2)NC1=O (stereo unspecified) | > 100 µM (inactive) |
| COC(=O)/C=C1/S/C(=N/NC(=O)c2ccc(Cl)cc2Cl)NC1=O | > 100 µM (inactive) |
| COC(=O)/C=C1/S/C(=N/NC(=O)c2ccc(OC)cc2)NC1=O | > 100 µM (inactive) |
| COc1ccc(NC(=S)NCCC(c2ccccc2)c2ccccc2)cc1 | > 100 µM (inactive) |
| Cc1cc(C)cc(Nc2nc(-c3ccc(O)cc3O)cs2)c1 | > 100 µM (inactive) |
| COc1cc(/C=N/N=C2\NC(=O)C(CC(=O)O)S2)cc(OC)c1OC (stereo unspecified) | > 100 µM (inactive) |
| CCc1ccccc1Nc1nc(-c2ccc(O)c(O)c2)cs1 | > 100 µM (inactive) |
| COC(=O)/C=C1/S/C(=N/NC(=O)c2ccccc2C)NC1=O | > 100 µM (inactive) |
| COc1ccc(C(=O)NNC(=S)NC2CCCCC2)cc1OC | > 100 µM (inactive) |
| Cc1ccc(Cl)cc1Nc1nc(-c2ccc(O)c(O)c2)cs1 | > 100 µM (inactive) |
| CCOc1cc(C=N/N=C2/NC(=O)C(CC(=O)O)S2)ccc1OCc1ccccc1Cl (stereo unspecified) | > 100 µM (inactive) |
| COC(=O)/C=C1\S/C(=N/N=C/c2ccc(Cl)cc2)NC1=O | > 100 µM (inactive) |

— PubChem BioAssay AID493138 (Sanford-Burnham Center for Chemical Genomics, 2011)
